Patent US7097967B2, “Method of predicting drug-food interaction” (LG Life Sciences Ltd., priority 2002, dated 2006)
Where a name gives a salt, the structure may show the parent alone. Read-outs that look alike come from different tables or passages of the source. Each block holds one compound with its values, some of them ahead of it.

Experiments:
[1] = Effect of composition of food on bioavailability of Drug A in dog; format: in vivo; conditions: dogs; for bioavailability: dog, plasma, po
Method: A solution in which 5 g of starch dispersed in 40 ml of water, 40 ml of egg albumin, and a solution in which 5 g of Gelucire® (44/14) dispersed in 40 ml of water, respectively, were fed to two dogs […] before administration of Drug A. These dogs (8–11 kg, Covance Research Product corporation, MI, U.S.A) were bred in a standard laboratory cage, adjusted for a temperature (22±3° C.) and humidity (50±20%), with feed and water available ad libitum. The dogs were fasted for 18–20 hours prior to this experiment. The test group for ascertaining the effect of foods was provided with foods 1 hour before administration of a drug, and the drug was administered after ingestion of foods. At a previously fixed time after administration, 500 μl of blood was gathered from the cephalic vein using the heparinized syringe, and the blood plasma was separated by a centrifuge, and then the plasma concentration of the drug was measured by HPLC analysis.
A Shiseido Capcell-Pak C18 reverse phase column was used for the drug-detection, employing a Shimadzu HPLC system (Class-LC10A system control software, CBM-10A communication bus module, two LC-10AD pumps, SIL-10AXL autoinjector with sample cooler, SPD-10AV ultraviolet detector). The mobile phase was acetonitrile : 0.1% trifluoroacetic acid /5 mM sodium dodecyl sulfate=47 : 53 and the flow rate was 1 ml/min. Data, obtained after oral administration, was expressed in a graph of drug concentration versus time, and applied to the non-compartment model using Win-Nonlin program (Scientific Consultion Corporation, NC, U.S.A.), whereby pharmacokinetic parameters such as a half-life (t1/2), maximum concentration (Cmax), time of the maximum concentration (Tmax), AUCinf, AUClast, and bioavailability (BA) were calculated. AUC was obtained by applying the trapezoidal rule-extrapolation method, and BA was calculated by using the formula (AUCPO×DoseIV)/(AUCIV×DosePO). The result of the experiment is disclosed in FIG. 1 and TABLE 2.

[2] = molecular target: T1, Trypsin (Bos taurus, UniProt P00760); assay: Measurement of activities of Drug A and its prodrugs to trypsin (chromogenic substrate, Ki); format: biochemical; conditions: tris buffer pH 7.8, N-benzoyl-Val-Gly-Arg-p-nitroanilide substrate, room temperature; read-out: Trypsin inhibition constant
T1 construct: gene PRSS1
T1 sequence (P00760 24-246): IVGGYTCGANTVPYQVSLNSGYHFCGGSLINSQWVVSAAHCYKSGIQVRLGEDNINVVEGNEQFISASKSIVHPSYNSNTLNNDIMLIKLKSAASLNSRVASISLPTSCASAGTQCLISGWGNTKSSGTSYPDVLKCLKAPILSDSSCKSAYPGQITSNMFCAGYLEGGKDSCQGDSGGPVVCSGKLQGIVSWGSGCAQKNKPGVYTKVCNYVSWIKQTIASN
Method: 140 μl of 0.1 M tris buffer solution (pH 7.8) containing 150 mM NaCl and 0.1% PEG 8000 (PolyEthylene Glycol, Molecular Weight: about 8,000) was pipetted into a microplate. A substrate solution was prepared by dissolving N-benzoyl-Val-Gly-Arg-p-nitroanilide hydro-chloride in DMSO to a concentration of 10 mM, and then diluting the resultant with the above buffer solution to a concentration of 0.5 mM. 20 μl of 0.5 mM substrate solution obtained thus was added to the microplate. An inhibitor solution was prepared by dissolving the inhibitor compound according to the present invention in DMSO to make the concentration of 10 mM, and then diluting the resultant with the above buffer solution to make the concentrations of 100000 nM, 10000 nM, 1000 nM, 100 nM, 10 nM, 1 nM, 0.1 nM, 0.01 nM and 0 nM, respectively. 20 μl of each inhibitor solution was adjusted to whole volume of 180 μl and then added to the microplate.
Trypsin which had been dissolved in 0.1 N HCl solution was added to the above tris buffer, just before the experiment, to make the concentration of 1 μg/ml, and 20 μl of solution obtained thus was added to the microplate containing the reaction solution at the room temperature. The amount of para-nitroaniline produced for 10 minutes after addition of enzymes was monitored by the light. The absorbance was plotted against the reaction time. Such graphs were obtained by performing the above experiment on the various concentrations of inhibitor.
Activities of Drug A and several prodrugs to trypsin were measured by determining the dissociation constant Ki, using the following formula according to the method described in Methods in Enzymology (V.80 p341–361; Biochemistry 27 p2144–2151,1988) Ki=[E]·[I]/[EI] • [E]: concentration of enzyme not bound to inhibitor • [I]: concentration of inhibitor not bound to enzyme • [EI]: concentration of binding product of enzyme and inhibitor
Such dissociation constant can be obtained by reacting with para-nitroanilide, which is chromogenic upon hydrolysis by the action of trypsin, and then measuring the extent of chromogenicity with time by spectroscopy.
The initial velocity, Vi, was obtained from the best-fit slope for the first 30 seconds after the reaction start time for each plot, and then a graph of the concentration of inhibitor versus the inverse of the initial velocity (1/Vi) was constructed. Thereafter, the linear function, which satisfies the graph, was calculated, and then Ki was calculated from the x-intercept of the above function using the enzymatic reaction formula. Km used in this calculation was obtained by changing the concentration of substrate at the constant enzyme concentration of […].

[3] = cited from earlier work
[4] = molecular target: T1, Trypsin; conditions: cited from earlier work
[5] = dog, cited from earlier work
[6] = molecular target: thrombin (Homo sapiens, UniProt P00734); conditions: cited from earlier work
[7] = rats, oral; cited from earlier work
[8] = human subjects, oral; cited from earlier work

bioavailability ([1]; in fasting state): 43%
bioavailability ([1]; oral, after intake of Gelucire (lipid)): 20%
bioavailability ([1]; oral, after intake of egg albumin): 13%
bioavailability ([1]; oral, after intake of starch): 41%
bioavailability after ingestion of foods ([1]; after ingestion of foods): decreased markedly
Ki [2]: 0.0003 µM
SMILES: N=C(N)c1ccc(CNC(=O)[C@@H]2CCCN2C(=O)[C@H](NCC(=O)O)C(c2ccccc2)c2ccccc2)s1 [Drug A, (2S)-N-{5-[amino(imino)methyl]-2-thienyl}methyl-1-{(2R)-2-[(carboxylmethyl)amino]-3,3-diphenylpropanol}-2-pyrrolidincarboxamide]

Ki [2]: 21 µM
SMILES: CCOC(=O)CN[C@@H](C(=O)N1CCC[C@H]1C(=O)NCc1ccc(/C(N)=N/C(=O)OCC2CCCCC2)s1)C(c1ccccc1)c1ccccc1 [Prodrug 4]

Ki [2]: 0.673 µM
SMILES: CCOC(=O)CN[C@@H](C(=O)N1CCC[C@H]1C(=O)NCc1ccc(/C(N)=N/C(=O)OCC(C)C)s1)C(c1ccccc1)c1ccccc1 [Prodrug 1]

SMILES: CC(C)(C)NC(=O)[C@@H]1CN(Cc2cccnc2)CCN1C[C@@H](O)C[C@@H](Cc1ccccc1)C(=O)N[C@H]1c2ccccc2C[C@H]1O [Indinavir, [1(1S,2R), 5(S)]-2,3,5-trideoxy-N-(2,3-dihydro-2-hydroxy-1H-inden-1-yl)-5-[2-[[(1,1-dimethylethylaminocarbonyl)-4-(3-pyridinylmethyl)-1-piperazinyl]-2-(phenylmethyl)-D-erytho-pentonamide sulfate (1:1) salt]
absorption rate when administered together with foods [3]: absorption rate decreases

SMILES: NCCCC[C@H](NC(=O)C1(C(=O)NCCc2ccccc2)CCCC1)B(O)O [Prodrug S-31922, 5-amino-1-R-(1phenethyl-carbamoyl-cyclopentanecaraboxamide) pentyl boronic acid]
IC50 [4]: 0.34 µM
bioavailability ([5]; after meals): 22%
bioavailability ([5]; fasting state): 36%
IC50 [6]: 0.043 µM

Ki [2]: 5.49 µM
SMILES: CCOC(=O)CN[C@@H](C(=O)N1CCC[C@H]1C(=O)NCc1ccc(/C(N)=N/O)s1)C(c1ccccc1)c1ccccc1 [Prodrug 3]

Ki [2]: 21.3 µM
SMILES: CCOC(=O)CN[C@@H](C(=O)N1CCC[C@H]1C(=O)NCc1ccc(/C(N)=N/OC(C)=O)s1)C(c1ccccc1)c1ccccc1 [Prodrug 2]

SMILES: N=C(N)NCCCC(C=O)NC(=O)C1CCCN1C(=O)C1NCCC2CCCCC21 (stereo not drawn) [R-Piq-Pro-Arg-H]
bioavailability after administration of foods [7]: decreases remarkably
bioavailability after intake of foods [8]: decreases remarkably

SMILES: CC(=O)N[C@H](Cc1ccccc1)C(=O)N(CC(=O)N[C@@H](CCCN=C(N)N)B(O)O)C1CCCC1 [Prodrug S-18326, Ac-D-Phe-N-cyclopentylglycine-boroArg-OH]
IC50 [4]: 0.02 µM
bioavailability ([5]; after meals): 6%
bioavailability ([5]; fasting state): 27%
IC50 [6]: 0.0036 µM
